In US20260207753A1, “PROTAC DEGRADATION OF FACTORS PAX3 AND FOXO1” (THE RESEARCH INSTITUTE AT NATIONWIDE CHILDREN'S HOSPITAL, priority 2022, published 2026):
Entries after “also recorded” stand apart in the source; their conditions may differ.

Experiments:
PAX3-FOXO1 fusion = experiment: Western blot of soluble nuclear extracts: PAX3-FOXO1 fusion loss in RH4 cells; assay type: cell-based, human; settings: 24 hours; for loss of the PAX3-FOXO1 fusion: 1 μM; for PROTAC concentration at which PAX3-FOXO1 is fully depleted: FIG. 6A
Protocol: (§1) The inventors investigated the effect of a number of PROTAC inhibitors on fusion-positive and negative RMS cell models. The experiment was designed as follows. Fusion-positive RMS (RH4 and RH30) and fusion-negative RMS (RD and CTR) cells were treated with DMSO or 1 μM dBRD9, DL-ds2-4, or SMARCA4-31 for 24 hours. Soluble nuclear extracts were prepared to assess target degradation as well as abundance of additional SWI/SNF complex subunits and the transcription factor FOXO1 (wild-type and PAX3-FOXO1 fusion).
(§2) The inventors also investigated whether the effect of the compounds was reversible. Fusion-positive RMS RH4 cells were treated for 24 hours with DMSO including […] dBRD9, DL-ds2-4, or SMARCA4-31. After the treatment period cells were collected or washed extensively to remove the compound and incubated in untreated growth media for an additional 24-hour period. Soluble nuclear extracts were prepared to assess target degradation and recovery.
(§3) In FIG. 6A, RH4 cells were treated for 24 hours with the indicated dose of SMARCA4-31 (labeled S4-31) or DL-dS2-4 (labeled S2-4).
(§4) In FIG. 6B, RH4 cells were treated with 125 nM SMARCA4-31 (labeled S4-31) or 250 nM DL-dS2-4 (labeled S2-4) for the indicated time.

RH4 cells [1] = experiment: Incucyte cell proliferation, growth-curve AUC dose-response, RH4; assay type: cell-based, human; settings: RH4 (fusion-positive), 96-hour, AUC of growth curve, initial data, FIG. 7A
Protocol: (§5) In FIG. 7A, RH4 (a PAX3-FOXO1 fusion-positive rhabdomyosarcoma cell line) and SMS-CTR (a PAX3-FOXO1 fusion-negative rhabdomyosarcoma cell line) cells were treated with increasing concentrations of SMARCA4-31 or DL-dS2-4 for a 96-hour period, and cell proliferation was monitored on an Incucyte® system. […] We explored why RH4 and SMS-CTR cells display relatively high sensitivity to PROTAC treatment. The CRBN gene expresses the protein cereblon, a component of an E3 ubiquitin ligase complex. By analyzing CRBN gene expression using RNA-seq from the Cancer Cell Line Encyclopedia (CCLE) database, we show in FIG. 7B, that RH4 and SMS-CTR cells express high levels of CRBN compared to other rhabdomyosarcoma (RMS) cell lines.

BRD9 = molecular target: T1, BRD9 (Homo sapiens, UniProt Q9H8M2); experiment: Abundance of GBAF subunit BRD9 in soluble nuclear extracts; assay type: cell-based; settings: 1 μM, 24 hours
T1 construct: Soluble nuclear extracts were prepared to assess target degradation as well as abundance of additional SWI/SNF complex subunits; endogenous in cells; host or cells: RH4, RH30, RD, CTR rhabdomyosarcoma cells
T1 sequence (Q9H8M2 1-597): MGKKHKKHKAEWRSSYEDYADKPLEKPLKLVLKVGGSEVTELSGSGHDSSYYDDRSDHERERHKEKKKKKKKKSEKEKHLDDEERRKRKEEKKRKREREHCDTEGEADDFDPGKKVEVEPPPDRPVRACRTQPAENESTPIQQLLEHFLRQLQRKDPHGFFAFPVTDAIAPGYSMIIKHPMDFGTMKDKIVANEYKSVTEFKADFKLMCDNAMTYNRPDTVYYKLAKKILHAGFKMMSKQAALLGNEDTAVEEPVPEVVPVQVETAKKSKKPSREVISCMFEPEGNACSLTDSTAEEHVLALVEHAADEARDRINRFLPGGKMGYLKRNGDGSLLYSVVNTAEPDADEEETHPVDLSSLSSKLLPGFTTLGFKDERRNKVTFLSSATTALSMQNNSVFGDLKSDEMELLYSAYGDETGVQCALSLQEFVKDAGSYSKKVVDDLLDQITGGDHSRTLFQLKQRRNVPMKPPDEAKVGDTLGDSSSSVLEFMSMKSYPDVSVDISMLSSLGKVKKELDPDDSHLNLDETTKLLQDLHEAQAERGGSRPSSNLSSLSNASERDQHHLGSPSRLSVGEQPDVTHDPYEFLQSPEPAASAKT
Protocol: as §1

RH4 cells [2] = experiment: Tn5 transposition library fragment length distribution (chromatin accessibility) in RH4 cells; assay type: cell-based, human; settings: 24 hours, with or without washout and 24-hour recovery, FIG. 5
Protocol: Finally, the inventors determined if the reversible disruption of the SWU/SNF complex results in altered chromatin accessibility. FP-RMS RH4 cells were treated for 24 hours with DMSO or SMARCA4-31. A third group was treated with SMARCA4-31 for 24 hours before washout, and a 24-hour recovery period. 50.000 cells were used. Tn5 transposition followed by Illumina library amplification (15 cycles). Libraries were run on Bioanalyzer to assess fragment length distribution.

MYOD1 = experiment: LC/MS of BAF-associated transcription factors in rhabdomyosarcoma cells: MYOD1; assay type: cell-based; settings: 1 μM, 24-hour treatment
Text: (§6) In addition to PAX3-FOXO1, depleted core-regulatory transcription factors included MYOD1, an essential factor in rhabdomyosarcoma cell growth.

DPF2 = experiment: Abundance of BAF subunit DPF2 in soluble nuclear extracts; assay type: cell-based; settings: 1 μM, 24 hours
Protocol: as §1

SMARCB1 = experiment: Abundance of SWI/SNF subunit SMARCB1 in soluble nuclear extracts; assay type: cell-based; settings: 1 μM, 24 hours
Protocol: as §1

PAX3-FOXO1 = molecular target: T2, PAX3-FOXO1 (Homo sapiens, UniProt P23760); experiment: LC/MS of BAF-associated transcription factors in rhabdomyosarcoma cells: PAX3-FOXO1; assay type: cell-based; settings: 1 μM, 24-hour treatment
T2 construct: endogenous in cells
T2 sequence (P23760 with tags, fused parts or gaps limits assumed): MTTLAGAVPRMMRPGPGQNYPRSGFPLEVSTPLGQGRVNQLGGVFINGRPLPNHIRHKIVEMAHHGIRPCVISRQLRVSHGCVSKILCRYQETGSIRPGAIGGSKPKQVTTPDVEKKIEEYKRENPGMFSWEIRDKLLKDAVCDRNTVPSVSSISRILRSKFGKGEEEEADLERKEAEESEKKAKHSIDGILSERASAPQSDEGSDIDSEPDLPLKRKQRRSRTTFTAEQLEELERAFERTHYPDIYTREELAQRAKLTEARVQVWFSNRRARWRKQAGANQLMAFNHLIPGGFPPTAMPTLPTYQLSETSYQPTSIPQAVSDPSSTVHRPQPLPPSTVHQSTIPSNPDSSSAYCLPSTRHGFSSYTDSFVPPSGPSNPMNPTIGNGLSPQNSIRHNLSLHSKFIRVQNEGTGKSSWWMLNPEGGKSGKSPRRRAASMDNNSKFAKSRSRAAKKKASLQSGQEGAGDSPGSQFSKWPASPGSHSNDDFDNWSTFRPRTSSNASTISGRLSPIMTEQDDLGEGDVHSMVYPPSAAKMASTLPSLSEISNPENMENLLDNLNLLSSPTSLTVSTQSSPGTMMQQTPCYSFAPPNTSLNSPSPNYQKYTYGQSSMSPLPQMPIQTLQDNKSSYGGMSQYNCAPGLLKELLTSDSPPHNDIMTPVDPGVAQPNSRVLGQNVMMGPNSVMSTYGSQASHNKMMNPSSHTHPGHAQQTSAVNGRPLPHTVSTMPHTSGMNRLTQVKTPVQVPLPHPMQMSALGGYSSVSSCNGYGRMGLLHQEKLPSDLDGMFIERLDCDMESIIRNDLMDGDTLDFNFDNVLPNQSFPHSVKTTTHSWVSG
Text: as §6

SMARCC1 = experiment: Abundance of SWI/SNF subunit SMARCC1 in soluble nuclear extracts; assay type: cell-based; settings: 1 μM, 24 hours
Protocol: as §1

PBRM1 = molecular target: T3, PBRM1 (Homo sapiens, UniProt Q86U86); experiment: Abundance of PBAF subunit PBRM1 in soluble nuclear extracts; assay type: cell-based; settings: 24 hours; for degradation of dedicated PBAF subunit PBRM1: 1 μM, soluble nuclear extracts
T3 construct: Soluble nuclear extracts were prepared to assess target degradation as well as abundance of additional SWI/SNF complex subunits; endogenous in cells; host or cells: RH4 (washout experiment) and other RMS cells
T3 sequence (Q86U86 whole entry): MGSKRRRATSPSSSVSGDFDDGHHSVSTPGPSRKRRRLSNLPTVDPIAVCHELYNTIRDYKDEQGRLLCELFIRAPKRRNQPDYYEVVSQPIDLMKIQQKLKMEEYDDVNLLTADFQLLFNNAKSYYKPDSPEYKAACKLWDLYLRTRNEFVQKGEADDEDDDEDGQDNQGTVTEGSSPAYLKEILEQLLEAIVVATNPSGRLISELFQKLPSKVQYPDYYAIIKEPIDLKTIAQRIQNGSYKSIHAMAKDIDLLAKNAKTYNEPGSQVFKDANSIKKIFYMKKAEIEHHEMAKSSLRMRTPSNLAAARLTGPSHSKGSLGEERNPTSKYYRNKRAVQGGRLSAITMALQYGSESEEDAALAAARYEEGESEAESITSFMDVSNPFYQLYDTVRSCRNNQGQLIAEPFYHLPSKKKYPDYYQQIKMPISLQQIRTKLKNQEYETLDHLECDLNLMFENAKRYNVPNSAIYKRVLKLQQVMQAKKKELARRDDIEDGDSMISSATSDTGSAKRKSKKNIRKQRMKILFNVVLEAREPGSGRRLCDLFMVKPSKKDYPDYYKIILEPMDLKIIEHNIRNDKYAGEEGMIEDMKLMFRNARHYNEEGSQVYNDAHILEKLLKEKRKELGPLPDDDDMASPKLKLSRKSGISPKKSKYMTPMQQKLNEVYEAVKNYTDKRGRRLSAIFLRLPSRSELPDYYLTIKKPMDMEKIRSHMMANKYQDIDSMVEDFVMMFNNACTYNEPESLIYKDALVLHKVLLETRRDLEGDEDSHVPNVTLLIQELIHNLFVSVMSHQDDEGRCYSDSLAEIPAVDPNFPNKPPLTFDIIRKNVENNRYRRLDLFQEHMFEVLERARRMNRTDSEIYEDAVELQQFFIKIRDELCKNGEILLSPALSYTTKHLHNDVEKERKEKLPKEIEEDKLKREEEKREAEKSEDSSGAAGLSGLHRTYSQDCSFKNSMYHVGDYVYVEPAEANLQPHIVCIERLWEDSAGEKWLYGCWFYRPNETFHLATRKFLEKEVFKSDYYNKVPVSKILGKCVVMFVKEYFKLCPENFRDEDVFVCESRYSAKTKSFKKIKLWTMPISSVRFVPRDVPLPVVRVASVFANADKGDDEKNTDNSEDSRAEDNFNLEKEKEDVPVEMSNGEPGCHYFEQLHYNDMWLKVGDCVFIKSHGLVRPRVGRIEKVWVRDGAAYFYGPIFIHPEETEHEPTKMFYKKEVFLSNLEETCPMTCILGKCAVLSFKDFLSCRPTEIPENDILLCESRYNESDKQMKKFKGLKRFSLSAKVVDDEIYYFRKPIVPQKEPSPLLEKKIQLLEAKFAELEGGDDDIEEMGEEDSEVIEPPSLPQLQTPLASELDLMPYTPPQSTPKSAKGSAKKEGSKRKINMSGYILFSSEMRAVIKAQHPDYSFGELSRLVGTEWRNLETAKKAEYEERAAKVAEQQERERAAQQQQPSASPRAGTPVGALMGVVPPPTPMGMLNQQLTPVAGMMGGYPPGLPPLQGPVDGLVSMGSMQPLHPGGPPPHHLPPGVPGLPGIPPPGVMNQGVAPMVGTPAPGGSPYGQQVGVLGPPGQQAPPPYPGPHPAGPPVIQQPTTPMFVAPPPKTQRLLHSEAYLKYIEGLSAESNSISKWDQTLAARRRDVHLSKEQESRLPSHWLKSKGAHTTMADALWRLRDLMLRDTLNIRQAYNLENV
Protocol: as §1, §2

SMARCA4 and SMARCA2 = experiment: Western blot of soluble nuclear extracts: ATPase (SMARCA4/SMARCA2) degradation in RH4 / rhabdomyosarcoma cells; assay type: cell-based, human; settings: for PROTAC exposure time until ATPase depletion is observed: 125 nM SMARCA4-31 or 250 nM DL-dS2-4, FIG. 6B; for dose required for maximal ATPase depletion: FIG. 6A; for loss of ATPases SMARCA4/SMARCA2: rhabdomyosarcoma cells, 1 μM, 24-hour treatment, western blot
Protocol: as §1, §2, §3, §4

FOXO1 = molecular target: T4, FOXO1 (Homo sapiens, UniProt Q12778); experiment: Western blot of soluble nuclear extracts: wild-type FOXO1 loss in CTR cells; assay type: cell-based; settings: 1 μM, 24 hours
T4 construct: In CTR cells, which only express the wild-type FOXO1; endogenous in cells; host or cells: CTR (SMS-CTR) cells
T4 sequence (Q12778 whole entry): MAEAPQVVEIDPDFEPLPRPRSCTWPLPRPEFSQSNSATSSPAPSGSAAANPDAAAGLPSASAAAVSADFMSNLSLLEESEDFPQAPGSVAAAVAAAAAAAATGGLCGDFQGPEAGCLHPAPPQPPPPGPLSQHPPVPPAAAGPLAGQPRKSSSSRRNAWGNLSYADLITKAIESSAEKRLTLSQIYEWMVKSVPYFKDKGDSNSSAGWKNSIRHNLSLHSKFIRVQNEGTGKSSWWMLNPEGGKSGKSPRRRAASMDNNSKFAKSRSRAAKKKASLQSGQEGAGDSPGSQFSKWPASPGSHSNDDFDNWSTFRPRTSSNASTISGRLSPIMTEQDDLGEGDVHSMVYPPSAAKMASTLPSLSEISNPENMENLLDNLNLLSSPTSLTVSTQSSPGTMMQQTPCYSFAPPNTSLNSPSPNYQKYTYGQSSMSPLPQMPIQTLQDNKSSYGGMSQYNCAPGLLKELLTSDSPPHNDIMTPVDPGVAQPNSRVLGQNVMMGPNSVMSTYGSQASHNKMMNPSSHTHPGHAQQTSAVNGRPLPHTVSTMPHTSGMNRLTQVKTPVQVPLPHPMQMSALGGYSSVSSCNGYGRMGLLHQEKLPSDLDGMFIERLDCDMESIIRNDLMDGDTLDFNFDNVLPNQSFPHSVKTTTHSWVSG
Protocol: as §1

SMS-CTR cells = experiment: Incucyte cell proliferation, growth-curve AUC dose-response, SMS-CTR; assay type: cell-based; settings: SMS-CTR (fusion-negative), 96-hour, AUC of growth curve, initial data, FIG. 7A
Protocol: as §5

abundance of GBAF subunit BRD9 (BRD9)	PAX3-FOXO1 depletion by LC/MS (PAX3-FOXO1)	degradation of dedicated PBAF subunit PBRM1 (PBRM1)	extent of PBRM1 degradation, reversibility experiment (PBRM1; RH4 cells, 1 µM, FIG. 4)	Compound	loss of the PAX3-FOXO1 fusion (PAX3-FOXO1 fusion)	extent of PAX3-FOXO1 degradation, reversibility experiment (PAX3-FOXO1 fusion; 1 µM, FIG. 4)	PROTAC concentration at which PAX3-FOXO1 is fully depleted (PAX3-FOXO1 fusion) [nM]	efficacy in inhibiting cell growth (concentration range) (RH4 cells [1])	chromatin accessibility (fragment length signatures) (RH4 cells [2])	MYOD1 depletion by LC/MS (MYOD1)	abundance of BAF subunit DPF2 (DPF2)	abundance of core subunit SMARCB1 (SMARCB1)	degradation of core SWI/SNF subunit SMARCC1 (SMARCC1)	PROTAC exposure time until ATPase depletion is observed (SMARCA4 and SMARCA2; RH4 cells)	extent of SMARCA4 degradation, reversibility experiment (SMARCA4 and SMARCA2; RH4 cells, 24 hours, 1 µM, FIG. 4)	dose required for maximal ATPase depletion (SMARCA4 and SMARCA2; RH4 cells, 24 hours) [nM]	loss of ATPases SMARCA4/SMARCA2 (SMARCA4 and SMARCA2)	loss of wild-type FOXO1 (FOXO1)	efficacy in inhibiting cell growth (concentration range) (SMS-CTR cells)
remained intact	depleted	specific degradation	More complete degradation	O=C1CCC(N2C(=O)c3ccc(NCCCCCCCCOCCc4cccc(N5C[C@H]6C[C@@H]5CN6/C=C/C(=O)c5ccccc5O)c4)cc3C2=O)C(=O)N1 (some centres unmarked) [SMARCA4-31]	loss of the PAX3-FOXO1 fusion; also recorded: concurrent loss	More complete degradation	62.5	sub-micromolar efficacy	alterations to the accessibility landscape	depleted	remained intact	remained intact	degraded	approximately 20 hours	More complete degradation	125	concurrent loss	FOXO1 loss; also recorded: concurrent loss	sub-micromolar efficacy
remained intact		specific degradation		O=C1CCC(N2C(=O)c3cccc(NCCCCNC(=O)c4cccc(C#Cc5cc(NC(=O)Nc6ccnc(Cl)c6)ccn5)c4)c3C2=O)C(=O)N1 (racemic) [DL-dS2-4]	loss of the PAX3-FOXO1 fusion; also recorded: concurrent loss		62.5	sub-micromolar efficacy			remained intact	remained intact	degraded	approximately 20 hours		250	concurrent loss	FOXO1 loss; also recorded: concurrent loss	sub-micromolar efficacy
